Several values for one entry are separate records, joined by “and”; a condition that tells them apart may be missing. Identical values can stand only once. Entries after “also recorded” stand apart in the source; their conditions may differ.
Columns and labels:
M14 cells = test: Adherent versus floating cell quantification from images, M14; assay type: cell-based, human; details: 10 µM, 3-day treatment, mean ± SEM (N = 4), controls 16.3 ± 2.8%
Experimental: After treatment of M14 and SK-MEL-5 cells with different concentrations of Dxr2-017 or vehicle for 3 or 8 days, as denoted, cell images were captured at 20X in a transmitted light channel using the EVOS™ M5000 Imaging System (Invitrogen (Waltham, MA, USA)). Western blots were performed as previously described by us. Briefly, cells were collected and lysed using RIPA lysis buffer (25 mM Tris-HCl pH 7.6, 150 mM NaCl, 1% NP-40, 1% sodium deoxycholate, and 0.1% SDS; Thermo Scientific^TM (Waltham, MA, USA), #89900), supplemented with protease and phosphatase inhibitor cocktail (Thermo Scientific^TM, #78442) and 1 mM of PMSF. […]
Figure 8 Dxr2-017 inhibits melanoma cell growth through induction of anoikis. […] Data are expressed as the percent of untreated control and are the mean ± SEM of three separate experiments. […] M14 and SK-MEL-5 cells were treated for eight days with 20 nM and 50 nM of Dxr2-017, respectively, and the phase of the cell cycle was determined by flow cytometry. […] (D) Adherent and floating cells were quantified from captured images. Data are the mean ± SEM (N = 4), expressed as a percentage to total cells. * Denotes p-value ≤ 0.05 compared to respective floating or attached cells. […]
We then assessed whether Dxr2-017 induced apoptosis. […]

[1] = test system: human cord blood CD34+ cells; test: Bone marrow stem cell (hematopoietic trilineage) colony formation assay; assay type: cell-based
Experimental: Human hematopoietic stem cell trilineage colony formation assays were performed as previously described by us. Briefly, human cord blood CD34+ cells (catalog #: 70008.5) were purchased from StemCell Technology Inc. and seeded at 1 × 10^4 cells per 35 mm dish. Cells were cultured in MethoCult™ Express (StemCell Technologies, Inc. (Vancouver, BC, Canada)) semisolid media, per the manufacturer’s instructions, in the presence of compound or vehicle (for controls). Compounds were added at final concentrations matching those used in the initial growth assay screens. At eight days, colonies (i.e., groups of ≥10 cells) were counted. At fourteen days, individual colonies of erythroid burst-forming units (BFU-E), colony-forming unit granulocyte–macrophage (CFU-GM), and colony-forming unit granulocyte, erythrocyte, monocyte, and megakaryocyte (CFU-GEMM) were identified based on the manufacturers’ morphologic characterization criteria. Assays were run in replicates of N = 2, and some were run in replicates of N = 4, as denoted. The mean number of colonies was then determined and expressed as the percentage of controls. The effect of each compound on inhibiting the growth of cancer cells relative to its toxic effects on normal bone marrow was evaluated. This was carried out by comparing colonies at 8 days for each cancer cell line to that of bone marrow. This information was used to calculate the efficacy ratio, as follows: efficacy ratio = (percent of remaining cancer cell colonies)/(percent of remaining bone marrow colonies). This was performed for all compounds at 40 µM and for selected compounds at 5.7 µM, as denoted. For compounds nominated for second-level screens, bone marrow colony formation assays were also repeated. Compounds were added at final concentrations matching those used in the initial screens.
In parallel with measuring growth inhibition of cancer cell growth, we measured the effect on human hematopoietic stem cells. Hematopoietic stem cells reside in the bone marrow and are the source of mature cells present in blood. Bone marrow is one of the most sensitive organs in the body to drug toxicity, and this is especially so for anticancer drugs, where bone marrow toxicity can approach 100% [78, 79, 80]. Bone marrow toxicity was measured by performing hematopoietic colony formation assays on human CD34+ stem cells. The stem cell nature of this assay permitted the assessment of trilineage colony formation: granulocytic (white blood cells), erythrocytic (red blood cells), and megakaryocytic (platelets), measured by the formation of CFU-GM, BFU-E, and CFU-GEMM colonies, respectively. Two measurements were taken. First, total colonies at eight days were measured, thereby matching the eight-day timeframe of cancer cell colony formation assays. Second, at fourteen days, individual colonies had differentiated, permitting quantification of each lineage.

cleaved caspase 3 = test: Western blot for cleaved caspase 3, SK-MEL-5; assay type: cell-based, human; details: up to 20 µM, three days
Experimental: After treatment of M14 and SK-MEL-5 cells with different concentrations of Dxr2-017 or vehicle for 3 or 8 days, as denoted, cell images were captured at 20X in a transmitted light channel using the EVOS™ M5000 Imaging System (Invitrogen (Waltham, MA, USA)). Western blots were performed as previously described by us. Briefly, cells were collected and lysed using RIPA lysis buffer (25 mM Tris-HCl pH 7.6, 150 mM NaCl, 1% NP-40, 1% sodium deoxycholate, and 0.1% SDS; Thermo Scientific^TM (Waltham, MA, USA), #89900), supplemented with protease and phosphatase inhibitor cocktail (Thermo Scientific^TM, #78442) and 1 mM of PMSF. Resultant Western blots were probed using antibodies against cleaved caspase 3 (Cell Signaling Technology (Danvers, MA, USA), #9664), pan-cadherin (Cell Signaling Technology, #4068), and β-actin (Santa Cruz (Santa Cruz, CA, USA), #sc-47778).
We then assessed whether Dxr2-017 induced apoptosis. We treated M14 and SK-MEL-5 cells with Dxr2-017 for three days at concentrations of up 10 and 20 µM, respectively, and measured cleaved caspase 3 using Western blot. […] In this assay, cells were grown in six-well plates and washed prior to lysis, and thus only adherent cells remained. […] Adherent cells are spread out and fusiform shaped, while detached/floating cells are round, as previously reported by us. […]

inhibition of normal bone marrow eight-day colony formation ([1]; 40 µM, 8 days): 30.2 ± 0.7% and 30%
decrease of BFU-E compared to the control ([1]; 40 µM, 14 days): 97.1 ± 4.1%
decrease of CFU-GM compared to the control ([1]; 40 µM, 14 days): 49.8 ± 0.0%
increase of CFU-GEMM compared to the control ([1]; 40 µM, 14 days): 16.1 ± 12.0%
inhibition of normal bone marrow fourteen-day total colony formation ([1]; 40 µM, 14 days): 42.6 ± 5.8%
Mean Number of Colonies, % of Control, 14 days ([1]; normal bone marrow, compound at 40 µM, 14 days, N = 2): 57 % of Control
Mean Number of Colonies, % of Control, 8 days ([1]; normal bone marrow, compound at 40 µM, total colonies at 8 days, N = 2): 70 % of Control
Compound: c1ccc2sc(-c3ccc(CNc4ccc5nnnn5n4)o3)nc2c1 [Dxr2-017]
floating cell population, percentage to total cells (M14 cells): 79.9 ± 7.4%
cleaved caspase 3, adherent and floating cells combined (cleaved caspase 3): clear formation was observed
cleaved caspase 3, adherent cells only (cleaved caspase 3): did not see any induction of cleaved caspase 3; also recorded: no formation of cleaved caspase 3
